The structures appear in SMILES notation. “Also recorded” adds a separate entry of the source. Read-outs that look alike come from different tables or passages of the source.

The subject of one data set is primary cortical neurons. To be noted: for neuroprotection against OGD, initial screen of BT-SERMs: BT-SERMs 100 nM; for effect of G15 on neuroprotection by antioxidants / sulforaphane: G15 pre-treatment (-45 min); for neuroprotection against OGD by BT-SERM analogs and derivatives: all 100 nM, MTT assay; for neuroprotection against OGD at lower concentrations: 1 μM or below; for neuroprotection against OGD by antioxidants / sulforaphane: concentration series; for effect of GPR30 antagonist G15 on neuroprotection: G15 100 nM pre-treatment, test compounds 100 nM; for concentration giving equivalence to E2 (10 nM) in neuroprotection: MTT cell viability assay, 2 h OGD, 24 h reperfusion.

The target in another data set is T1, ER (Homo sapiens, UniProt P03372).
T1 sequence (P03372 1-595): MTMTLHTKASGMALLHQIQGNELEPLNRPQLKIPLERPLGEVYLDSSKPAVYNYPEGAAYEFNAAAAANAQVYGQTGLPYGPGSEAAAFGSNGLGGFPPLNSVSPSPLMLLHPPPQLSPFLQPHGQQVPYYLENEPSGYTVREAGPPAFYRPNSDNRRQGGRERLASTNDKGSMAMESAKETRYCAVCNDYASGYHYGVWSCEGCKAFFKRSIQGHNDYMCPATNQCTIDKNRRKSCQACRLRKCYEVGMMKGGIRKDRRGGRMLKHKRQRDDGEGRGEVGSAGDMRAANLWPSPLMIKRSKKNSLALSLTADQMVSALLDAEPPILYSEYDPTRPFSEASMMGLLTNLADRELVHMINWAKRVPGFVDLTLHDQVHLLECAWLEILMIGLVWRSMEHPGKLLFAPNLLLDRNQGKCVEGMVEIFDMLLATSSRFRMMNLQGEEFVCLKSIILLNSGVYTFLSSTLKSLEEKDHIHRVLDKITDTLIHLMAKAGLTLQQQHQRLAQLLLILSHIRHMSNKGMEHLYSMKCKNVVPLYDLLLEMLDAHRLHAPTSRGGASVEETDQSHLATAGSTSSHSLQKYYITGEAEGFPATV
Conditions: Fig. 1; cited from earlier work.

Another data set deals with ERβ. To be noted: cited from earlier work.
The test system of another data set is ERα. Conditions: cited from earlier work.
The next data set addresses iNOS. Conditions: read-out: Ki iNOS; cited from earlier work.

Turning to `Oc1ccc(-c2cc3ccc(O)cc3s2)cc1` [BTC, 2-(4-hydroxyphenyl)-benzo[b]thiophen-6-ol], in the data set with primary cortical neurons (MTT and LDH), the “neuroprotection against OGD, initial screen of BT-SERMs” value (“neuroprotection … of BT-SERMs” for short) is recorded as “active”. Also, the “effect of G15 on neuroprotection by antioxidants / sulforaphane” value (shortened to “effect … by antioxidants / sulforaphane”) in the data set with primary cortical neurons is “did not inhibit neuroprotection”. Also, on ER, the “ER activity in cell culture” value is on record as “ER agonist activity”. For the same compound, in the data set on ERβ (ERβ versus ERα, Fig. 1), the ER subtype selectivity entry is on record as “selectivity for ERβ”.

As for `COC(=O)[C@@H](N)CCCNC(N)=N[N+](=O)[O-]` [L-NAME, L-nitro-arginine methyl ester], in the data set on primary cortical neurons (L-NAME 100 μM, alone or in combination with estrogen and SERMs), the “effect of L-NAME on neuroprotection” value is “no significant effect”.

Turning to `Cc1ccc(C(=O)c2c(-c3ccc(O)cc3)sc3cc(O)ccc23)cc1` [Tol-BTC, (6-hydroxy-2-(4-hydroxyphenyl)benzo[b]thiophen-3-yl)(p-tolyl)methanone], the “neuroprotection against OGD by BT-SERM analogs and derivatives” value with primary cortical neurons is “neuroprotective”.

Regarding `C[S+]([O-])CCCCN=C=S` (centres unmarked) [sulforaphane], the “neuroprotection against OGD at lower concentrations” value in the data set on primary cortical neurons (MTT and LDH) is given as “neuroprotection”; with primary cortical neurons (MTT and LDH, listed as Sulforaphane), “neuroprotective”. Further, in the data set on primary cortical neurons, the “effect … by antioxidants / sulforaphane” value is recorded as “did not inhibit neuroprotection; also recorded: insensitive to antagonism by G15”.

Turning to `Cc1c(C)c2c(c(C)c1O)CCC(C)(C(=O)O)O2` (centres unmarked) [Trolox], the “effect … by antioxidants / sulforaphane” value in the data set on primary cortical neurons is on record as “did not inhibit neuroprotection; also recorded: insensitive to antagonism by G15”. Further, in the data set with primary cortical neurons (MTT and LDH), the “neuroprotection against OGD by antioxidants / sulforaphane” value is recorded as “neuroprotective; also recorded: concentration dependent neuroprotection”.

With `COc1ccc(-c2sc3cc(O)ccc3c2Oc2ccc(OCCN3CCCCC3)cc2)cc1` [arzoxifene], in the data set on primary cortical neurons (MTT and LDH), the “neuroprotection … of BT-SERMs” value is “inactive”.

In the case of `Oc1ccc(Oc2c(-c3ccc(F)cc3)sc3cc(O)ccc23)cc1` [HP-BTF, 2-(4-fluorophenyl)-3-(4-hydroxyphenoxy)benzo[b]thiophen-6-ol], in the data set on primary cortical neurons (E2 10 nM), the “effect of GPR30 antagonist G15 on neuroprotection” value (“effect of GPR30 antagonist G15” below) is listed as “GPR30-dependent”. Moreover, in the data set on primary cortical neurons, the “neuroprotection against OGD by BT-SERM analogs and derivatives” value is on record as “neuroprotective”.

With `C[C@]12CC[C@@H]3c4ccc(O)cc4CC[C@H]3[C@@H]1CC[C@@H]2O` [E2, 17β-estradiol], the “effect of GPR30 antagonist G15” value with primary cortical neurons (E2 10 nM) is given as “blocked neuroprotection”. Besides, in the data set on primary cortical neurons (ICI 1 μM 45 min prior to OGD, SERMs 100 nM, E2 10 nM), the “effect of ER antagonist ICI 182 780 on neuroprotection” value is given as “block E2 mediated neuroprotection”. Moreover, the “greater cell death in the vehicle treated group than the E2 treated group” value with primary cortical neurons (OGD 2 h, recovery 24 h) was 30-40%. The “neuroprotection against OGD by estrogens” value with primary cortical neurons (estrogens 10 nM, E2-BSA 10 ng/mL, MTT and LDH) was “neuroprotective”.

`Oc1ccc(-c2sc3cc(O)ccc3c2Oc2ccc(OCCN3CCCCC3)cc2)cc1` [DMA, [6-hydroxy-3-[4-[2-(1-piperidinyl)-ethoxy]phenoxy]-2-(4-hydroxyphenyl)]benzo[b]thiophene]: in the data set on primary cortical neurons (MTT and LDH), the “neuroprotection … of BT-SERMs” value was “neuroprotective”. Also, the “concentration giving equivalence to E2 (10 nM) in neuroprotection” value in the data set on primary cortical neurons worked out at 28 nM. Besides, in the data set with ERα, the “binding to ERα” value was “high affinity”. For the same compound, the “binding to ERβ” value in the data set with ERβ is “high affinity”.

For the compound `O=C(CCCCCC(=O)c1c(-c2ccc(O)cc2)sc2cc(O)ccc12)c1c(-c2ccc(O)cc2)sc2cc(O)ccc12` [bisBTChd, 1,7-bis(6-hydroxy-2-(4-hydroxyphenyl)benzo[b]thiophen-3-yl)heptane-1,7-dione], in the data set with primary cortical neurons, the “neuroprotection against OGD by BT-SERM analogs and derivatives” value is “neuroprotective”.

Regarding `N=C(NCCC[C@H](N)C(=O)O)N[N+](=O)[O-]` [N^G-nitro-L-arginine], the inhibition constant Ki on iNOS is 4 µM.

For `Oc1ccc(-c2cn(-c3ccc(O)cc3)nn2)cc1` [4,4-TDP], the “neuroprotection against OGD by BT-SERM analogs and derivatives” value in the data set with primary cortical neurons was “no neuroprotective activity”.

Turning to `O=C(c1ccc(OCCN2CCCCC2)cc1)c1c(-c2ccc(O)cc2)sc2cc(O)ccc12` [Ral, raloxifene], the “neuroprotection … of BT-SERMs” value in the data set with primary cortical neurons (MTT and LDH) was “neuroprotective”. The results for the “concentration giving equivalence to E2 (10 nM) in neuroprotection” value in the data set on primary cortical neurons and with primary cortical neurons (listed as raloxifene) were 68 nM and 62 nM, respectively.

On to `Oc1cccc(-c2cn(-c3cccc(O)c3)nn2)c1` [3,3-TDP], for which the “effect of GPR30 antagonist G15” value with primary cortical neurons (E2 10 nM) is on record as “GPR30-dependent”. For the same compound, the “neuroprotection against OGD by BT-SERM analogs and derivatives” value in the data set on primary cortical neurons is listed as “neuroprotective”.

For `Cc1cc(C(C)(C)C)c(O)c(C(C)(C)C)c1` [BHT, butylated hydroxtoluene], in the data set with primary cortical neurons (MTT and LDH), the “neuroprotection against OGD at lower concentrations” value is recorded as “neuroprotective” and the “neuroprotection against OGD by antioxidants / sulforaphane” value was “neuroprotective”. Moreover, in the data set with primary cortical neurons, the “effect … by antioxidants / sulforaphane” value is “insensitive to antagonism by G15”. For the same compound, the “effect in OGD neurons at higher concentration” value with primary cortical neurons (higher concentration (10 μM), MTT and LDH) was “neurotoxicity; also recorded: neurotoxic”.

`CC(C)c1c(-c2ccc(O)cc2)sc2cc(O)ccc12` [iPr-BTC, 2-(4-hydroxyphenyl)-3-isopropylbenzo[b]thiophen-6-ol]: the “neuroprotection against OGD by BT-SERM analogs and derivatives” value in the data set on primary cortical neurons is recorded as “neuroprotective”.

Source of the values: paper PMC3124785 (ACS chemical neuroscience, 2011).
